Measurements published in publication PMC7560867, “Unique dynamic mode between Artepillin C and human serum albumin implies the characteristics of Brazilian green propolis representative bioactive component” (Scientific Reports, 2020).

Target: T1, Human serum albumin (HSA) (Homo sapiens, UniProt P02768)
T1 construct: gene ALB
Experiment: intrinsic fluorescence quenching, excitation […] nm, emission […] nm
Assay type: binding
Conditions: 295 K, PBS pH 7.4, 0.5 uM HSA, no warfarin; double-log; n 0.8430; quenching described as dynamic; Sudlow's site I (IIA)

T1 sequence (P02768 25-609): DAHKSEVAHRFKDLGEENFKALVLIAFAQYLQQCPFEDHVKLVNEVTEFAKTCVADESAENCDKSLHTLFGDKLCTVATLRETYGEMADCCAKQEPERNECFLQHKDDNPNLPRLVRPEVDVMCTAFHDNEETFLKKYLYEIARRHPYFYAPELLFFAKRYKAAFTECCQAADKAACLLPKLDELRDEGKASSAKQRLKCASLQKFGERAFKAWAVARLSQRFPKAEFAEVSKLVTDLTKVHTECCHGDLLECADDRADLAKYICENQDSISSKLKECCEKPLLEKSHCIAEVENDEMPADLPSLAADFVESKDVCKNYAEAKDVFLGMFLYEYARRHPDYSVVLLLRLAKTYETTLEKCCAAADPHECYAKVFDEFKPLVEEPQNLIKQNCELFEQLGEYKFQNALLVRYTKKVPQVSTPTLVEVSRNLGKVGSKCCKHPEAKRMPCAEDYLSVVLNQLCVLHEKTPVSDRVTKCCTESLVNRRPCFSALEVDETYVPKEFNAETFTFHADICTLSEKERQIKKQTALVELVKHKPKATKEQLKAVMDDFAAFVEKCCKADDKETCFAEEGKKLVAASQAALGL

KA: 908000 L/mol
Compound: CC(C)=CCc1cc(/C=C/C(=O)O)cc(CC=C(C)C)c1O [Artepillin C, 3,5-diprenyl-4-hydroxycinnamic acid]
